System: HT-29 cells
Assay: Annexin V-FITC/PI double staining, flow cytometry
Format: cell-based, human
Details: 24 h; for LA/NC Q2 late apoptotic or/and necrotic cells, fold change / Q1 + Q2 total dead cells, fold change / Q1 dead cells, fold change / Q2 + Q3 total apoptotic cells, fold change / EAC Q3 early apoptotic cells, fold change: vs CTL; for viability at 50 µM / viability at 100 µM / viability at 200 µM: Homo sapiens, HT-29, quadrant plot, read-out: Percentage of viable (Q4) cells
Description: The dead, necrotic, and apoptotic cells were analyzed by annexin V/PI double staining method, which was used to detect the externalization of phosphatidylserine (PS). Briefly, cells at the density of 4.5 × 10^4 cells/well were seeded into 6-well plates and treated with or without DKPs for 24 h. Subsequently, both floating and adherent cells were harvested by centrifugation at 1,500 rpm for 5 min, then re-suspended in 300 μL of 1X binding buffer, followed by 3 μL of annexin V-FITC and propidium iodide (PI) (Apoptosis Detection kit, Lead Gen, Taiwan) was added into each sample and incubated for 20 min at room temperature in the dark following the protocol recommended by the manufactures. Cells were analyzed by flow cytometry (FACS Calibur, Becton Dickinson, CA, USA) using WinMDI 2.9 software (La Jolla, CA, USA). The individual populations can be defined using quadrant gates, the number of cells in each quadrant indicated the following: Quadrant-1 (Q1): annexin V^-/PI^+ cells were considered as dead cells; Quadrant-2 (Q2): Annexin V^+/PI^+ cells were considered as late apoptotic and necrotic cells; Quadrant-3 (Q3): Annexin V^+/PI^− cells were considered as early apoptotic cells; Quadrant-4 (Q4): Annexin V^-/PI^- cells were considered as healthy. Data were analyzed using FlowJo V12.1 software (Tree stat, Stanford, CA, USA).

Compound	LA/NC Q2 late apoptotic or/and necrotic cells, fold change (50 μM) [fold]	Q1 + Q2 total dead cells, fold change (50 μM) [fold]	Q1 dead cells, fold change (50 μM) [fold]	Q2 + Q3 total apoptotic cells, fold change (50 μM) [fold]	LA/NC Q2 late apoptotic or/and necrotic cells, fold change (100 μM) [fold]	Q1 + Q2 total dead cells, fold change (100 μM) [fold]	Q1 dead cells, fold change (100 μM) [fold]	Q2 + Q3 total apoptotic cells, fold change (100 μM) [fold]	LA/NC Q2 late apoptotic or/and necrotic cells, fold change (200 μM) [fold]	Q1 + Q2 total dead cells, fold change (200 μM) [fold]	Q1 dead cells, fold change (200 μM) [fold]	Q2 + Q3 total apoptotic cells, fold change (200 μM) [fold]	viability at 50 µM (50 μM) [%]	viability at 100 µM (100 μM) [%]	viability at 200 µM (200 μM) [%]	EAC Q3 early apoptotic cells, fold change (50 μM) [fold]	EAC Q3 early apoptotic cells, fold change (100 μM) [fold]	EAC Q3 early apoptotic cells, fold change (200 μM) [fold]
CC(C)C[C@@H]1NC(=O)[C@@H]2CCCN2C1=O [DKP-1, cyclo (L-Pro-L-Leu)]	2.3	1.7	1.5	2.3	2.6	3.0	3.1	3.6	9.9	3.3	1.1	11.4	83.3	69.7	56.3	–	–	–
CC(C)[C@@H]1NC(=O)[C@@H]2CCCN2C1=O [DKP-2, cyclo (L-Pro-L-Val)]	2.5	1.7	1.5	2.7	3.5	3.1	3.0	3.9	11.2	3.5	1.2	11.0	79.3	64.2	52.5	3.0	4.5	10.6
O=C1N[C@@H](Cc2ccccc2)C(=O)N2CCC[C@@H]12 [DKP-3, cyclo (L-Pro-L-Phe)]	10.5	3.3	1.7	12.7	14.9	3.8	1.4	15.9	15.6	3.8	1.3	18.1	55.8	50	45.4	16.5	17.4	22.3
O=C1N[C@@H](Cc2ccc(O)cc2)C(=O)N2CCC[C@@H]12 [DKP-4, cyclo (L-Pro-L-Tyr)]	8.4	3.0	1.5	12.6	14.6	3.9	1.0	15.9	18.0	5.5	2.1	15.5	57.6	52	46.5	20.5	18.4	10.8
